For this experiment, the system named is mouse organs. The experiment in a line: In vivo activity screening in mice: organ mean total flux (p/s) of luciferase activity after injection of F2 LNP pools (Table 6, FIG. 7A-7C). Particulars: luciferase mRNA. The method, then: Small rodent biodistribution studies were performed in mice (e.g., C57BL/6J, Balb-c, CD-1, etc.). For evaluating LNP biodistribution and tissue activity upon systemic administration, C57BL/6J mice received dose administration by single intravenous injection via tail vein with LNP formulations (individual or pooled) in PBS, at different dose (0.25-3 mg/kg) levels of firefly luciferase mRNA. At predetermined time points (4-6 hours post-injection), the animals were anesthetized via isoflurane and subjected to in-life imaging sessions for bioluminescence using an In Vivo Imaging System (IVIS). All animals were dosed with D-Luciferin at 15 mg/mL via subcutaneous (SC) injection at 0.2 mL/animal. Animals had their abdomen hair shaved using an animal trimmer. They were then placed so their shaved belly faced up toward the IVIS camera. Whole body imaging sessions were performed 10-15 minutes following D-Luciferin administration.
For in detail organ distribution and activity of LNP formulations, ex vivo imaging sessions were also performed. All animals received SC D-Luciferin and were then euthanized by isoflurane overdose, followed by cardiac perfusion with saline. Following perfusion, the organs were collected and subjected to IVIS imaging for luminescence within 10-15 minutes of D-Luciferin injection.
All IVIS images were processed with a computer software to identify the regions of interests for individual organs to detect the total flux (p/s) values as luminescence quantification. Then the total flux values were graphed to evaluate the in vivo activity in each collected organ.
Small rodent biodistribution studies were performed in mice according to the General Study Protocols in Example 3(a). LNPs incorporating lipid compounds were prepared in Formulation F2, with MC3 as lipid compound (Cayman Chemical) prepared using Formulation F2 for comparison. LNP pools (with firefly luciferase mRNA encapsulated) were injected into mice at varying doses, and organ mean total flux (p/s) results (measuring luciferase activity) were then collected according to Example 3(a).
LNPs comprising MC3 used as a control and for cross-mouse comparison. Dose is in mg/kg; LC is Lipid Compound according to Table 1.
Additional screening results for Compounds 7, 13, 14, 26, 33, 38, 39, 40, 48, 60, 61, 89, 103, and 109 in spleen, femur, and muscle are shown in FIG. 7A, FIG. 7B, and FIG. 7C, with MC3 as a used as a control for comparison.

Marks after values point to notes of the source that are not given here.

For the compound `CCCCCCCCCCOC(=O)CCCCCC(=O)OCC(COC(=O)CCCCCC(=O)OCCCCCCCCCC)(COC(=O)CCCCCC(=O)OCCCCCCCCCC)COC(=O)CCC(CCCCCC)OC(=O)NCCN1CCCC1` (stereo not drawn) [Compound 36, O7-[2,2-bis[(7-decoxy-7-oxo-heptanoyl)oxymethyl]-3-[4-(2-pyrrolidin-1-ylethylcarbamoyloxy)decanoyloxy]propyl]O1-decyl heptanedioate], where the note is “Mouse 6, dose 0.5 mg/kg”, the “Organ Mean Total Flux Femur” value was 3.6 p/s (×10^6), the “Organ Mean Total Flux Heart” value is given as 3.7 p/s (×10^6), the “Organ Mean Total Flux Kidney” value is recorded as 2.7 p/s (×10^6) and the “Organ Mean Total Flux Liver” value is listed as 2330 p/s (×10^6). Moreover, under “Mouse 6, dose 0.5 mg/kg”, the “Organ Mean Total Flux Lung” value is on record as 16.5 p/s (×10^6), the “Organ Mean Total Flux Muscle” value is recorded as 6.0 p/s (×10^6), the “Organ Mean Total Flux Pancreas” value was 1.2 p/s (×10^6) and the “Organ Mean Total Flux Spleen” value was 6.1 p/s (×10^6).
As to `CCCCCCCCC(C)OC(=O)CCCCCC(=O)OCC(COC(=O)CCCCCC(=O)OC(C)CCCCCCCC)(COC(=O)CCCCCC(=O)OC(C)CCCCCCCC)COC(=O)CCC(CCCCCC)OC(=O)NCCN1CCCC1` (stereo not drawn) [Compound 40, O1-[2,2-bis[[7-(1-methylnonoxy)-7-oxo-heptanoyl]oxymethyl]-3-[4-(2-pyrrolidin-1-ylethylcarbamoyloxy)decanoyloxy]propyl]O7-(1-methylnonyl)heptanedioate], for the setting “Mouse 6, dose 0.5 mg/kg”, the “Organ Mean Total Flux Femur” value is reported as 10.9 p/s (×10^6), the “Organ Mean Total Flux Heart” value was 6.0 p/s (×10^6), the “Organ Mean Total Flux Kidney” value is listed as 5.1 p/s (×10^6) and the “Organ Mean Total Flux Liver” value is on record as 3230 p/s (×10^6). Where the note is “Mouse 6, dose 0.5 mg/kg”, the “Organ Mean Total Flux Lung” value is recorded as 27.7 p/s (×10^6), the “Organ Mean Total Flux Muscle” value is listed as 34.4 p/s (×10^6), the “Organ Mean Total Flux Pancreas” value was 4.6 p/s (×10^6) and the “Organ Mean Total Flux Spleen” value is on record as 6.4 p/s (×10^6).
Consider `CCCCC/C=C\CCOC(=O)CCCCC(=O)OCC(COC(=O)CCCCC(=O)OCC/C=C\CCCCC)(COC(=O)CCC(CCCCCC)OC(=O)NCCN1CCCC1)COC(=O)C12CCC(CC1)CC2` (stereo not drawn) [Compound 67, O6-[2-(bicyclo[2.2.2]octane-1-carbonyloxymethyl)-2-[[6-[(Z)-non-3-enoxy]-6-oxo-hexanoyl]-oxymethyl]-3-[4-(2-pyrrolidin-1-ylethylcarbamoyloxy)decanoyloxy]propyl]O1-[(Z)-non-3-enyl]hexanedioate], for which, for the setting “Mouse 12, dose 0.5 mg/kg”, the “Organ Mean Total Flux Femur” value was 10.8 p/s (×10^6), the “Organ Mean Total Flux Heart” value is 0.4 p/s (×10^6), the “Organ Mean Total Flux Kidney” value is on record as 1.9 p/s (×10^6) and the “Organ Mean Total Flux Liver” value is listed as 220.0 p/s (×10^6). Under “Mouse 12, dose 0.5 mg/kg”, the “Organ Mean Total Flux Lung” value was 11.8 p/s (×10^6), the “Organ Mean Total Flux Muscle” value is recorded as 22.8 p/s (×10^6), the “Organ Mean Total Flux Pancreas” value is on record as 10.4 p/s (×10^6) and the “Organ Mean Total Flux Spleen” value is 50.1 p/s (×10^6).
On to `CCCCC/C=C\CCOC(=O)CCCCC(=O)OCC(COC(=O)CCCCC(=O)OCC/C=C\CCCCC)(COC(=O)CCC(CCCCCC)OC(=O)NCCN1CCCC1)COC(=O)C1CC2C(C1)C2(F)F` (stereo not drawn) [Compound 81, O6-[2-[(6,6-difluorobicyclo[3.1.0]hexane-3-carbonyl)oxymethyl]-2-[[6-[(Z)-non-3-enoxy]-6-oxo-hexanoyl]oxymethyl]-3-[4-(2-pyrrolidin-1-ylethylcarbamoyloxy)decanoyloxy]propyl]O1-[(Z)-non-3-enyl]hexanedioate], for which, where the note is “Mouse 12, dose 0.5 mg/kg”, the “Organ Mean Total Flux Femur” value is given as 11.1 p/s (×10^6), the “Organ Mean Total Flux Heart” value is recorded as 1.2 p/s (×10^6), the “Organ Mean Total Flux Kidney” value is 4.0 p/s (×10^6) and the “Organ Mean Total Flux Liver” value is 727.0 p/s (×10^6). Further, for the setting “Mouse 12, dose 0.5 mg/kg”, the “Organ Mean Total Flux Lung” value is on record as 12.1 p/s (×10^6), the “Organ Mean Total Flux Muscle” value is 5.7 p/s (×10^6), the “Organ Mean Total Flux Pancreas” value is 12.9 p/s (×10^6) and the “Organ Mean Total Flux Spleen” value was 115.9 p/s (×10^6).
As for `CCCCC/C=C\CCCOC(=O)CCCCCC(=O)OCC(COC(=O)CCCCCC(=O)OCCC/C=C\CCCCC)(COC(=O)CCCCCC(=O)OCCC/C=C\CCCCC)COC(=O)CCC(CCCCCC)OC(=O)NCCN1CCCC1` (stereo not drawn) [Compound 45, O7-[2,2-bis[[7-[(Z)-dec-4-enoxy]-7-oxo-heptanoyl]oxymethyl]-3-[4-(2-pyrrolidin-1ylethylcarbamoyloxy)decanoyloxy]propyl]O1-[(Z)-dec-4-enyl]heptanedioate], for the setting “Mouse 11, dose 0.5 mg/kg”, the “Organ Mean Total Flux Femur” value is on record as 1.0 p/s (×10^6), the “Organ Mean Total Flux Heart” value is on record as 1.1 p/s (×10^6), the “Organ Mean Total Flux Kidney” value is on record as 0.9 p/s (×10^6) and the “Organ Mean Total Flux Liver” value is on record as 809.3 p/s (×10^6). Besides, for the setting “Mouse 11, dose 0.5 mg/kg”, the “Organ Mean Total Flux Lung” value is listed as 7.2 p/s (×10^6), the “Organ Mean Total Flux Muscle” value is 5.6 p/s (×10^6), the “Organ Mean Total Flux Pancreas” value is listed as 0.5 p/s (×10^6) and the “Organ Mean Total Flux Spleen” value is given as 6.0 p/s (×10^6).
Turning to `CCCCCCCCCC(C)OC(=O)CCCCCCC(=O)OCC(COC(=O)CCCCCCC(=O)OC(C)CCCCCCCCC)(COC(=O)CCCCCCC(=O)OC(C)CCCCCCCCC)COC(=O)CCC(CCCCCC)OC(=O)NCCN1CCCC1` (stereo not drawn) [Compound 41, O1-[2,2-bis[[8-(1-methyldecoxy)-8-oxo-octanoyl]oxymethyl]-3-[4-(2-pyrrolidin-1-ylethylcarbamoyloxy)decanoyloxy]propyl]O8-(1-methyldecyl) octanedioate], under “Mouse 5, dose 0.5 mg/kg”, the “Organ Mean Total Flux Femur” value is listed as 3.8 p/s (×10^6), the “Organ Mean Total Flux Heart” value is given as 2.2 p/s (×10^6), the “Organ Mean Total Flux Kidney” value is recorded as 2.8 p/s (×10^6) and the “Organ Mean Total Flux Liver” value was 3493 p/s (×10^6). Where the note is “Mouse 5, dose 0.5 mg/kg”, the “Organ Mean Total Flux Lung” value is 18.0 p/s (×10^6), the “Organ Mean Total Flux Muscle” value was 10.0 p/s (×10^6), the “Organ Mean Total Flux Pancreas” value is recorded as 0.8 p/s (×10^6) and the “Organ Mean Total Flux Spleen” value is 2.5 p/s (×10^6).
For `CCCCCCCCCCOC(=O)CCCCCCC(=O)OCC(COC(=O)CCCCCCC(=O)OCCCCCCCCCC)(COC(=O)CCCCCCC(=O)OCCCCCCCCCC)COC(=O)CCC(CCCCCC)OC(=O)NCCN1CCCC1` (stereo not drawn) [Compound 35, O8-[2,2-bis[(8-decoxy-8-oxo-octanoyl)oxymethyl]-3-[4-(2-pyrrolidin-1ylethylcarbamoyloxy)decanoyloxy]propyl]O1-decyloctanedioate], under “Mouse 6, dose 0.5 mg/kg”, the “Organ Mean Total Flux Femur” value is 4.2 p/s (×10^6), the “Organ Mean Total Flux Heart” value is on record as 1.3 p/s (×10^6), the “Organ Mean Total Flux Kidney” value was 1.3 p/s (×10^6) and the “Organ Mean Total Flux Liver” value is on record as 850.3 p/s (×10^6). Under “Mouse 6, dose 0.5 mg/kg”, the “Organ Mean Total Flux Lung” value is given as 11.0 p/s (×10^6), the “Organ Mean Total Flux Muscle” value is recorded as 15.5 p/s (×10^6), the “Organ Mean Total Flux Pancreas” value is 2.5 p/s (×10^6) and the “Organ Mean Total Flux Spleen” value is on record as 5.4 p/s (×10^6).
As to `CCCCCCC(CCC(=O)OCC(COC(=O)CCCCCOC(=O)C(CCCC)CCCCCC)(COC(=O)CCCCCOC(=O)C(CCCC)CCCCCC)COC(=O)CCCCCOC(=O)C(CCCC)CCCCCC)OC(=O)NCCN1CCCC1` (stereo not drawn) [Compound 55, [6-[2,2-bis[6-(2-butyloctanoyloxy)hexanoyloxymethyl]-3-[4-(2-pyrrolidin-1ylethylcarbamoyloxy)decanoyloxy]propoxy]-6-oxo-hexyl]2-butyloctanoate], where the note is “Mouse 3, dose 1.0 mg/kg”, the “Organ Mean Total Flux Femur” value was 6.1 p/s (×10^6), the “Organ Mean Total Flux Heart” value is given as 4.4 p/s (×10^6), the “Organ Mean Total Flux Kidney” value is reported as 2.4 p/s (×10^6) and the “Organ Mean Total Flux Liver” value was 4527 p/s (×10^6). Under “Mouse 3, dose 1.0 mg/kg”, the “Organ Mean Total Flux Lung” value is 19.9 p/s (×10^6), the “Organ Mean Total Flux Muscle” value was 17.4 p/s (×10^6), the “Organ Mean Total Flux Pancreas” value is 2.6 p/s (×10^6) and the “Organ Mean Total Flux Spleen” value was 6.2 p/s (×10^6).
Consider `CCCCCCC(CCC(=O)OCC(COC(=O)CCCCCOC(=O)C(CCCC)CCCCCC)(COC(=O)CCCCCOC(=O)C(CCCC)CCCCCC)COC(=O)CC12CC3CC(CC(C3)C1)C2)OC(=O)NCCN1CCCC1` (stereo not drawn) [Compound 58, [6-[2-[[2-(1-adamantyl)acetyl]oxymethyl]-2-[6-(2-butyloctanoyloxy)hexanoyloxymethyl]-3-[4-(2-pyrolidin-1-ylethylcarbamoyloxy)decanoyloxy]propoxy]-6-oxo-hexyl]2-butyloctanoate], for which, under “Mouse 3, dose 1.0 mg/kg”, the “Organ Mean Total Flux Femur” value is given as 11.5 p/s (×10^6), the “Organ Mean Total Flux Heart” value is 2.8 p/s (×10^6), the “Organ Mean Total Flux Kidney” value is given as 2.6 p/s (×10^6) and the “Organ Mean Total Flux Liver” value is 1493 p/s (×10^6). For the setting “Mouse 3, dose 1.0 mg/kg”, the “Organ Mean Total Flux Lung” value is given as 41.0 p/s (×10^6), the “Organ Mean Total Flux Muscle” value is reported as 29.1 p/s (×10^6), the “Organ Mean Total Flux Pancreas” value is on record as 9.2 p/s (×10^6) and the “Organ Mean Total Flux Spleen” value is listed as 10.5 p/s (×10^6).

The record behind these values is US20260234115A1, “LIPID COMPOUNDS, COMPOSITIONS, AND USES THEREOF” (Liberate Bio, Inc., priority 2023, published 2026).
